Source: patent publication US20160024086A1, “AZAINDOLE RETINOIC ACID RECEPTOR-RELATED ORPHAN RECEPTOR MODULATORS AND USES THEREOF” (INNOV17 LLC, priority 2014, published 2016)

Tests used:
Format in all cases: cell-based
Conditions in all cases: 72 h; human CD4+ T cells under TH17-polarizing conditions, 3 days, supernatant ELISA
IL-17A = experiment: Human TH17 cytokine inhibition as measured by ELISA (IL-17A)
Protocol: (§1) Human TH17 Cytokine Inhibition as Measured by ELISA
(§2) Peripheral blood mononuclear cells (PBMCs) were sourced from freshly prepared leukocyte enriched plasma (buffy coat) from healthy donors (New York Blood Center). PBMCs were isolated by density gradient centrifugation using Ficoll-Paque™ PLUS (GE Healthcare). Human CD4+ T cells were seeded into 96-well plates (5×10^4 cells/well) and activated with plate-bound anti-human (h)-CD3 antibody and soluble h-aCD28 (both at 1 ug/ml; eBioscience) and differentiated into TH17 cells with 20 ng/mL h-IL-6, 5 ng/mL h-TGF-β1, 10 ng/mL h-IL-23 (eBioscience) and 10 ng/mL IL-1β (Miltenyi Biotec) in serum-free TexMACS Medium (Miltenyi Biotec) supplemented with 1% Penicillin/Streptomycin (Lonza) for 3 days. CD4+ T cells propagated under TH17-polarizing conditions were cultured in the presence or absence of various concentrations of compounds with a final concentration of 0.1% DMSO. Supernatants were collected and stored at −20° C. until assayed for IL-17A, IL-17F and IL-21 levels by “Ready-Set-Go” ELISA kits (eBioscience) as per manufacturer's instructions. Endpoint absorbance was read at 450 nm using a microplate reader (Perkin Elmer).

IL-17F = experiment: Human TH17 cytokine inhibition as measured by ELISA (IL-17F)
Protocol: as §1, §2

IL-22 = experiment: Human TH17 cytokine inhibition as measured by ELISA (IL-22)
IL-21 = experiment: Human TH17 cytokine inhibition as measured by ELISA (IL-21)
Protocol: as §1, §2

Measured: IC50

C[C@H]1C[C@H](Cn2ccc3nc(-c4cn[nH]c4)ccc32)CN1C(=O)CCc1ccccc1 (racemic) [Example 40, rac.-trans-1-(4-((5-(1H-pyrazol-4-yl)-1H-pyrrolo[3,2-b]pyridin-1-yl)methyl)-2-methylpyrrolidin-1-yl)-3-phenylpropan-1-one]
< 10 µM: all assays above

C[C@@H]1C[C@H](Cn2ccc3nc(-c4cn[nH]c4)ccc32)CN1C(=O)CCc1ccccc1 (racemic) [Example 41, rac.-cis-1-(4-((5-(1H-pyrazol-4-yl)-1H-pyrrolo[3,2-b]pyridin-1-yl)methyl)-2-methylpyrrolidin-1-yl)-3-phenylpropan-1-one]
< 10 µM: IL-17A | IL-17F | IL-21

O=C(CCc1ccccc1)N1CCC(Cn2ccc3nc(-c4cn[nH]c4)ccc32)CC1 [Example 3, 1-(4-((5-(1H-pyrazol-4-yl)-1H-pyrrolo[3,2-b]pyridin-1-yl)methyl)piperidin-1-yl)-3-phenylpropan-1-one]
< 10 µM: IL-17A | IL-17F | IL-21

O=C(CC1CCCCC1)N1CCC(Cn2ccc3nc(-c4cn[nH]c4)ccc32)CC1 [Example 4, 1-(4-((5-(1H-pyrazol-4-yl)-1H-pyrrolo[3,2-b]pyridin-1-yl)methyl)piperidin-1-yl)-2-cyclohexylethanone]
< 10 µM: IL-17A | IL-17F | IL-21

O=C(Cc1ccccc1)N1CCC(Cn2ccc3nc(-c4cn[nH]c4)ccc32)CC1 [Example 7, 1-(4-((5-(1H-pyrazol-4-yl)-1H-pyrrolo[3,2-b]pyridin-1-yl)methyl)piperidin-1-yl)-2-phenylethanone]
< 10 µM: IL-17A | IL-17F | IL-21

CC1(C)CC(Cn2ccc3nc(-c4cn[nH]c4)ccc32)CN1C(=O)c1ccccc1 (stereo not drawn) [Example 19, (4-((5-(1H-pyrazol-4-yl)-1H-pyrrolo[3,2-b]pyridin-1-yl)methyl)-2,2-dimethylpyrrolidin-1-yl)(phenyl)methanone]
< 10 µM: IL-17A | IL-17F | IL-21

O=S(=O)(c1ccccc1)N1CCC(Cn2ccc3nc(-c4cn[nH]c4)ccc32)CC1 [Example 30, 1-((1-(phenylsulfonyl)piperidin-4-yl)methyl)-5-(1H-pyrazol-4-yl)-1H-pyrrolo[3,2-b]pyridine]
< 10 µM: all assays above

O=S(=O)(Cc1ccccc1)N1CCC(Cn2ccc3nc(-c4cn[nH]c4)ccc32)CC1 [Example 32, 1-((1-(benzylsulfonyl)piperidin-4-yl)methyl)-5-(1H-pyrazol-4-yl)-1H-pyrrolo[3,2-b]pyridine]
< 10 µM: all assays above
